BigSolDB 2.1

O=Cc1ccc(O)c(Br)c1
solubility (mole fraction)
Conditions	278.15 K	283.15 K	288.15 K	293.15 K	298.15 K	303.15 K	308.15 K	313.15 K	318.15 K	323.15 K
in 1,4-dioxane	–	–	0.016	0.0188	0.022	0.0255	0.0297	0.0345	0.0402	0.0471
in DMF	0.0129	0.0148	0.0171	0.02	0.0236	0.0275	0.0321	0.0372	0.0426	0.0488
in DMSO	–	–	–	0.0177	0.0202	0.0235	0.0278	0.0332	0.0396	0.0467
in acetonitrile	0.00714	0.00815	0.00947	0.0111	0.013	0.0152	0.0179	0.0207	0.0238	0.0273
in cyclohexane	–	0.000283	0.000369	0.000478	0.000609	0.000766	0.000949	0.00115	0.00139	0.00167
in ethanol	0.00755	0.00852	0.00981	0.0116	0.0137	0.0161	0.0188	0.0219	0.0254	0.0293
in ethyl acetate	0.00956	0.011	0.0127	0.015	0.0176	0.0209	0.0244	0.0287	0.0332	0.0384
in ethylene glycol	0.00584	0.00666	0.00772	0.00903	0.0107	0.0126	0.0149	0.0177	0.0211	0.0252
in isobutanol	0.00978	0.0112	0.0131	0.0155	0.0183	0.0215	0.0251	0.0293	0.0336	0.0386
in isopropanol	0.0079	0.00892	0.0104	0.0123	0.0144	0.0171	0.0201	0.0235	0.0272	0.0317
in methanol	0.00568	0.00645	0.00751	0.00881	0.0103	0.0121	0.0142	0.0165	0.019	0.0221
in n-butanol	0.0106	0.0122	0.0144	0.0168	0.0197	0.023	0.0269	0.0313	0.0364	0.0423
in n-octanol	0.012	0.0138	0.0162	0.0192	0.0226	0.0267	0.0314	0.0365	0.0427	0.0498
in n-pentanol	0.0115	0.0132	0.0153	0.0181	0.0215	0.0252	0.0295	0.0343	0.0401	0.0467
in n-propanol	0.00865	0.01	0.0117	0.0138	0.0162	0.0191	0.0225	0.0264	0.0308	0.0361
in water	5.93e-05	7.11e-05	9.02e-05	0.000116	0.00015	0.000196	0.00025	0.000314	0.000395	0.000493
